# Literature values, collected in patent US5411479A, “Cancer treatment and catheter for use in treatment” (priority 1993, dated 1995).
# Tests used:
# hepatocellular tumor = settings: for activity in hepatocellular tumor: systemic chemotherapy, Phase II trials
# [1] = test system: colon cancer metastatic to the liver; settings: for effectiveness of arterial infusion: drug delivered directly to liver tumor cells
# [2] = for Local hepatobiliary toxicities (hepatitis, cholecystitis, biliary sclerosis, stenosis and stricture): conventional HAI; for Systemic toxicity of HAI chemotherapy: conventional doses; for Hepatitis (nausea, vomiting, abdominal pain, jaundice, elevated liver transaminases and bilirubin): in vivo
SMILES,objective therapeutic responses (hepatocellular tumor; doxorubicin 60 mg/m^2 every 3 weeks),toxicity (hepatocellular tumor; doxorubicin 75 mg/m^2 every 3 weeks),"objective response (hepatocellular tumor; doxorubicin 75 mg/m^2 every 3 weeks, East African blacks, of 50 patients treated)","complete response (hepatocellular tumor; doxorubicin 75 mg/m^2 every 3 weeks, among 22 objective responses, 50 patients treated)",activity in hepatocellular tumor (hepatocellular tumor),effectiveness of arterial infusion [1],"Local hepatobiliary toxicities (hepatitis, cholecystitis, biliary sclerosis, stenosis and stricture) [2]",Systemic toxicity of HAI chemotherapy [2],"Hepatitis (nausea, vomiting, abdominal pain, jaundice, elevated liver transaminases and bilirubin) [2]",dose-response effect ([1]; in vivo)
COc1cccc2c1C(=O)c1c(O)c3c(c(O)c1C2=O)C[C@@](O)(C(=O)CO)C[C@@H]3O[C@H]1C[C@H](N)[C@H](O)[C@H](C)O1 [doxorubicin],approximately 20 % of the patients,Substantial toxicity,22 patients,3 patients,significant activity,,,,,
"O=c1[nH]c(=O)n([C@H]2C[C@H](O)[C@@H](CO)O2)cc1F [FUDR, floxuridine]",,,,,,increases their effectiveness,up to 50 % of the patients,has not been a major problem,has occurred,
"O=c1[nH]cc(F)c(=O)[nH]1 [5-FU, 5-fluorouracil]",,,,,significant activity,increases their effectiveness,up to 50 % of the patients,has not been a major problem,has occurred,displays a dose-response effect
